Test results published in patent EP1039908B1, “MOLECULAR DISPERSION COMPOSITION WITH ENHANCED BIOAVAILABILITY” (SCHERING CORPORATION, priority 1997, dated 1999).

Test: Bioavailability assay: oral single dose to monkeys, plasma analysed by HPLC-UV, AUC ratio versus amorphous suspension control
Format: in vivo, male cynomolgus monkeys
Settings: for bioavailability: qualitative statement, solid dosage form development with conventional excipients
Method: The formulation to be tested was administered orally to male cynomolgus monkeys in a single dose (PO, single). The number of monkeys for each test is indicated by the letter "N" followed by an equal sign and a number. Thus, "(N=6)" means the formulation was administered to six monkeys. The total amount of the compound of Formula I administered was 100 or 200 mg given as one capsule or tablet containing 100 or 200 mg each. The administered dose (tablet, capsule or control suspension) was slowly washed down with 10 mL of water. Blood samples were taken at 15, 30 minutes, 1 hour, 2 hours, 4 hours. 6 hours, 8 hours, 12 hours, 24 hours, and 48 hours in heparinized syringes. Plasma for analysis was obtained by centrifugation at 4°C. Plasma samples (one per time point) were split and stored at -20°C until assayed as described below.
The monkeys to be tested were fed two biscuits in the morning on the day of drug administration.
Monkeys that were fasted were not given any food overnight before drug administration and were fed normally after the 4-hour time point after drug administration.
Samples of monkey plasma were collected at selected time intervals. The plasma was analyzed by a high pressure liquid chromatograph (HPLC) procedure with ultraviolet detection. AUC (area under the plasma concentration-time curve, […]) values were calculated using standard procedures to determine the relative bioavailability of the compound in the tested formulations. The larger the AUC value, the greater the bioavailability.
A suspension of the compound of Formula I was used as a control. The control was made by suspending sufficient compound of Formula I in methyl cellulose solution to provide a dose of 30 mg/kg of body weight of monkey. The 0.4 % methyl cellulose solution was made by adding 4 grams of methyl cellulose to one liter of distilled water and heating at about 80°C with stirring for about 1 1/2 hours.
The results of the bioavailability assay are given in terms of percent-relative bioavailability (AUC ratio) compared to amorphous suspension of Compound I in 0.4 methyl cellulose solution.

[1] = suspension, PO single dose, fed monkeys
[2] = suspension, PO single dose, feeding state not printed in the sentence (fasted monkeys implied by b156)

Row | Structure (SMILES) | bioavailability | relative bioavailability, % of the AUC of suspensions containing the amorphous form of compound I [1] [%] | relative bioavailability, % of the C max of suspensions containing the amorphous form of compound I [1] [%] | relative bioavailability, % of the AUC of the suspensions containing the amorphous form of compound I [2] [%] | relative bioavailability, % of the Cmax of the suspensions containing the amorphous form of compound I [2] [%] | bioavailability (listed as compound of Formula I)
1 | NC(=O)N1CCC(CC(=O)N2CCC(C3c4ncc(Br)cc4CCc4cc(Cl)cc(Br)c43)CC2)CC1 (single isomer, unassigned; (+)) [crystalline compound I, (+)-4-[4-(8-chloro-3,10-dibromo-6,11-dihydro-5H-benzo [5,6cyclohepta[1,2-b]pyridin-11-yl)-1-piperidinyl]-2-oxoethyl]-1-piperidinecarboxamide] | very poor | 3.6 | 5.2 | 1.3 | 2.7 | 
2 | NC(=O)N1CCC(CC(=O)N2CCC(C3c4ncc(Br)cc4CCc4cc(Cl)cc(Br)c43)CC2)CC1 (single isomer, unassigned; (+)) [Compound I, (+)-4-[4-(8-chloro-3,10-dibromo-6,11-dihydro-5H-benzo [5,6cyclohepta[1,2-b]pyridin-11-yl)-1-piperidinyl]-2-oxoethyl]-1-piperidinecarboxamide] |  |  |  |  |  | extremely poor
